Reference: patent publication US20200079765A1, “SUBSTITUTED HETEROARYL PYRROLONES AND SALTS THEREOF AND USE THEREOF AS HERBICIDAL ACTIVE SUBSTANCES” (Bayer CropScience Aktiengesellschaft, priority 2016, published 2020)

Legend:
Format in all cases: in vivo
Abutilon theophrasti [1] = test: Post-emergence herbicidal action (Experimental Part 1, A); settings: about 3 weeks after treatment, 100% = plants have died, 0% = like control plants
Procedure: (§1) Seeds of monocotyledonous and dicotyledonous weeds and crop plants were placed in sandy loam in plastic or wood-fiber pots, covered with soil and cultivated in a greenhouse under controlled growth conditions. 2 to 3 weeks after sowing, the test plants were treated at the one-leaf stage. The compounds of the invention, formulated in the form of wettable powders (WP) or as emulsion concentrates (EC), were then sprayed onto the green parts of the plants as aqueous suspension or emulsion with addition of 0.5% additive at a water application rate of 600 l/ha (converted). After the test plants had been kept in the greenhouse under optimum growth conditions for about 3 weeks, the activity of the preparations was rated visually in comparison to untreated controls. For example, 100% activity=the plants have died, 0% activity=like control plants. Tables A1 to A14 below show the effects of selected compounds of the general formula (I) according to Tables I.1 to I.116 on various harmful plants and an application rate corresponding to 1280 g/ha or 320 g/ha, which were obtained by the experimental procedure mentioned above.

Alopecurus myosuroides [2] = test: as above; settings: about 3 weeks after treatment, 100% = plants have died, 0% = like control plants
Procedure: as §1

Amaranthus retroflexus [3] = test: as above; settings: about 3 weeks after treatment, 100% = plants have died, 0% = like control plants
Procedure: as §1

Avena fatua [4] = test: as above; settings: rated visually after about 3 weeks
Procedure: as §1

Echinochloa crus-galli [5] = test: as above; settings: about 3 weeks after treatment, 100% = plants have died, 0% = like control plants
Procedure: as §1

Hordeum murinum [6] = test: as above; settings: application rate 1280 g/ha, rated visually after about 3 weeks
Procedure: as §1

Ipomoea purpurea [7] = test: as above; settings: application rate 1280 g/ha, rated visually after about 3 weeks
Procedure: as §1

Lolium rigidum [8] = test: as above; settings: application rate 1280 g/ha, rated visually after about 3 weeks
Procedure: as §1

Matricaria inodora [9] = test: as above; settings: rated visually after about 3 weeks
Procedure: as §1

Polygonum convolvulus [10] = test: as above; settings: rated visually after about 3 weeks
Procedure: as §1

Setaria viridis [11] = test: as above; settings: about 3 weeks after treatment, 100% = plants have died, 0% = like control plants
Procedure: as §1

Stellaria media [12] = test: as above; settings: rated visually after about 3 weeks
Procedure: as §1

Veronica persica [13] = test: as above; settings: application rate 1280 g/ha, about 3 weeks after treatment, 100% = plants have died, 0% = like control plants
Procedure: as §1

Viola tricolor [14] = test: as above; settings: rated visually after about 3 weeks
Procedure: as §1

Abutilon theophrasti [15] = test: Pre-emergence herbicidal action (Experimental Part 1, B); settings: scored visually after about 3 weeks
From the text: (§2) Seeds of monocotyledonous and dicotyledonous weed plants and crop plants were placed in plastic or organic planting pots and covered with soil. The compounds of the invention, formulated in the form of wettable powders (WP) or as emulsion concentrates (EC), were then applied onto the surface of the covering soil as aqueous suspension or emulsion with addition of 0.5% additive at a water application rate of 600 l/ha (converted). After the treatment, the pots were placed in a greenhouse and kept under good growth conditions for the test plants. After about 3 weeks, the effect of the preparations was scored visually in comparison with untreated controls as percentages. For example, 100% activity=the plants have died, 0% activity=like control plants. Tables B1 to B14 below show the effects of selected compounds of the general formula (I) according to Tables I.1 to I.116 on various harmful plants and an application rate corresponding to 1280 g/ha or 320 g/ha, which were obtained by the experimental procedure mentioned above.

Alopecurus myosuroides [16] = test: as above; settings: scored visually after about 3 weeks
From the text: as §2

Amaranthus retroflexus [17] = test: as above; settings: scored visually after about 3 weeks
From the text: as §2

Avena fatua [18] = test: as above; settings: scored visually after about 3 weeks
From the text: as §2

Echinochloa crus-galli [19] = test: as above; settings: application rate 1280 g/ha, scored visually after about 3 weeks
From the text: as §2

Hordeum murinum [20] = test: as above; settings: scored visually after about 3 weeks
From the text: as §2

Ipomoea purpurea [21] = test: as above; settings: application rate 1280 g/ha, scored visually after about 3 weeks
From the text: as §2

Lolium rigidum [22] = test: as above; settings: application rate 1280 g/ha, scored visually after about 3 weeks
From the text: as §2

Matricaria inodora [23] = test: as above; settings: scored visually after about 3 weeks
From the text: as §2

Polygonum convolvulus [24] = test: as above; settings: scored visually after about 3 weeks
From the text: as §2

Setaria viridis [25] = test: as above; settings: scored visually after about 3 weeks
From the text: as §2

Stellaria media [26] = test: as above; settings: scored visually after about 3 weeks
From the text: as §2

Veronica persica [27] = test: as above; settings: application rate 1280 g/ha, scored visually after about 3 weeks
From the text: as §2

Viola tricolor [28] = test: as above; settings: scored visually after about 3 weeks
From the text: as §2

In the case of `CC(=O)OC1C(C)=CC(=O)N1c1cc(C(C)(C)C)on1` (stereo not drawn) [I.3-162], the “herbicidal activity on Abutilon theophrasti (visual rating vs untreated controls)” value (Abutilon theophrasti [1]; application rate 320 g/ha) is reported as 100%, the “herbicidal activity on Abutilon theophrasti (visual rating vs untreated controls)” value (Abutilon theophrasti [1]; application rate 1280 g/ha) is reported as 100% and the “herbicidal activity on Alopecurus myosuroides (visual rating vs untreated controls)” value (Alopecurus myosuroides [2]; application rate 320 g/ha) is reported as 100%. For the same compound, the “herbicidal activity on Alopecurus myosuroides (visual rating vs untreated controls)” value (Alopecurus myosuroides [2]; application rate 1280 g/ha) was 100%, the “herbicidal activity on Amaranthus retroflexus (visual rating vs untreated controls)” value (Amaranthus retroflexus [3]; application rate 320 g/ha) was 90% and the “herbicidal activity on Amaranthus retroflexus (visual rating vs untreated controls)” value (Amaranthus retroflexus [3]; application rate 1280 g/ha) was 100%. The “Avena fatua, herbicidal activity” value (Avena fatua [4]; application rate 320 g/ha) was 90%, the “Avena fatua, herbicidal activity” value (Avena fatua [4]; application rate 1280 g/ha) was 90% and the “herbicidal activity on Echinochloa crus-galli (visual rating vs untreated controls)” value (Echinochloa crus-galli [5]; application rate 320 g/ha) was 90%. For the same compound, the “herbicidal activity on Echinochloa crus-galli (visual rating vs untreated controls)” value (Echinochloa crus-galli [5]; application rate 1280 g/ha) was 100%, the “Hordeum murinum, herbicidal activity” value (Hordeum murinum [6]) was 100% and the “Ipomoea purpurea, herbicidal activity” value (Ipomoea purpurea [7]) was 90%. The “Lolium rigidum, herbicidal activity” value (Lolium rigidum [8]) was 90%, the “Matricaria inodora, herbicidal activity” value (Matricaria inodora [9]; application rate 320 g/ha) was 100% and the “Matricaria inodora, herbicidal activity” value (Matricaria inodora [9]; application rate 1280 g/ha) was 100%. The “Polygonum convolvulus, herbicidal activity” value (“Polygonum convolvulus” below) (Polygonum convolvulus [10]; application rate 320 g/ha) was 100%, the “Polygonum convolvulus” value (Polygonum convolvulus [10]; application rate 1280 g/ha) was 100% and the “herbicidal activity on Setaria viridis (visual rating vs untreated controls)” value (Setaria viridis [11]; application rate 320 g/ha) was 100%. For the same compound, the “herbicidal activity on Setaria viridis (visual rating vs untreated controls)” value (Setaria viridis [11]; application rate 1280 g/ha) was 100%, the “Stellaria media, herbicidal activity” value (Stellaria media [12]; application rate 320 g/ha) was 100% and the “Stellaria media, herbicidal activity” value (Stellaria media [12]; application rate 1280 g/ha) was 100%. For the same compound, the “herbicidal activity on Veronica persica (visual rating vs untreated controls)” value (Veronica persica [13]) was 100%, the “Viola tricolor, herbicidal activity” value (Viola tricolor [14]; application rate 320 g/ha) was 100% and the “Viola tricolor, herbicidal activity” value (Viola tricolor [14]; application rate 1280 g/ha) was 100%. For the same compound, the “Abutilon theophrasti, herbicidal activity” value (Abutilon theophrasti [15]; application rate 320 g/ha) was 100%, the “Abutilon theophrasti, herbicidal activity” value (Abutilon theophrasti [15]; application rate 1280 g/ha) was 100% and the “Alopecurus myosuroides, herbicidal activity” value (Alopecurus myosuroides [16]; application rate 320 g/ha) was 90%. For the same compound, the “Alopecurus myosuroides, herbicidal activity” value (Alopecurus myosuroides [16]; application rate 1280 g/ha) was 90%, the “Amaranthus retroflexus, herbicidal activity” value (Amaranthus retroflexus [17]; application rate 320 g/ha) was 100% and the “Amaranthus retroflexus, herbicidal activity” value (Amaranthus retroflexus [17]; application rate 1280 g/ha) was 100%. The “Avena fatua, herbicidal activity” value (Avena fatua [18]; application rate 320 g/ha) was 90%, the “Avena fatua, herbicidal activity” value (Avena fatua [18]; application rate 1280 g/ha) was 90% and the “Echinochloa crus-galli, herbicidal activity” value (Echinochloa crus-galli [19]) was 100%. The “Hordeum murinum, herbicidal activity” value (Hordeum murinum [20]; application rate 320 g/ha) was 90%, the “Hordeum murinum, herbicidal activity” value (Hordeum murinum [20]; application rate 1280 g/ha) was 100% and the “Ipomoea purpurea, herbicidal activity” value (Ipomoea purpurea [21]) was 90%. The “Lolium rigidum, herbicidal activity” value (Lolium rigidum [22]) was 90%, the “Matricaria inodora, herbicidal activity” value (Matricaria inodora [23]; application rate 320 g/ha) was 100% and the “Matricaria inodora, herbicidal activity” value (Matricaria inodora [23]; application rate 1280 g/ha) was 100%. For the same compound, the “Polygonum convolvulus” value (Polygonum convolvulus [24]; application rate 320 g/ha) was 100%, the “Polygonum convolvulus” value (Polygonum convolvulus [24]; application rate 1280 g/ha) was 100% and the “Setaria viridis, herbicidal activity” value (Setaria viridis [25]; application rate 320 g/ha) was 100%. For the same compound, the “Setaria viridis, herbicidal activity” value (Setaria viridis [25]; application rate 1280 g/ha) was 100%, the “Stellaria media, herbicidal activity” value (Stellaria media [26]; application rate 320 g/ha) was 90% and the “Stellaria media, herbicidal activity” value (Stellaria media [26]; application rate 1280 g/ha) was 100%. The “Veronica persica, herbicidal activity” value (Veronica persica [27]) was 100%, the “Viola tricolor, herbicidal activity” value (Viola tricolor [28]; application rate 320 g/ha) was 100% and the “Viola tricolor, herbicidal activity” value (Viola tricolor [28]; application rate 1280 g/ha) was 100%.
